Measured values taken from US11370771B2, “Inhibitors of TRPC6” (Boehringer Ingelheim International GmbH, priority 2018, dated 2022).
pIC50: −log10 of the molar value.

molecular target: T1, human TRPC6 (Homo sapiens, UniProt Q9Y210); test: High Throughput Screening Assay Method 2 (membrane potential dye, GSK1702934A agonist, HEK293 stably transfected with human TRPC6); assay type: cell-based; details: antagonist effect against human TRPC6, 3 μM GSK1702934A agonist, HEK293 TRPC6 cells, read-out: Fluorescence TRPC6 IC50
T1 construct: expressed in transfected cells
T1 sequence (Q9Y210 1-931): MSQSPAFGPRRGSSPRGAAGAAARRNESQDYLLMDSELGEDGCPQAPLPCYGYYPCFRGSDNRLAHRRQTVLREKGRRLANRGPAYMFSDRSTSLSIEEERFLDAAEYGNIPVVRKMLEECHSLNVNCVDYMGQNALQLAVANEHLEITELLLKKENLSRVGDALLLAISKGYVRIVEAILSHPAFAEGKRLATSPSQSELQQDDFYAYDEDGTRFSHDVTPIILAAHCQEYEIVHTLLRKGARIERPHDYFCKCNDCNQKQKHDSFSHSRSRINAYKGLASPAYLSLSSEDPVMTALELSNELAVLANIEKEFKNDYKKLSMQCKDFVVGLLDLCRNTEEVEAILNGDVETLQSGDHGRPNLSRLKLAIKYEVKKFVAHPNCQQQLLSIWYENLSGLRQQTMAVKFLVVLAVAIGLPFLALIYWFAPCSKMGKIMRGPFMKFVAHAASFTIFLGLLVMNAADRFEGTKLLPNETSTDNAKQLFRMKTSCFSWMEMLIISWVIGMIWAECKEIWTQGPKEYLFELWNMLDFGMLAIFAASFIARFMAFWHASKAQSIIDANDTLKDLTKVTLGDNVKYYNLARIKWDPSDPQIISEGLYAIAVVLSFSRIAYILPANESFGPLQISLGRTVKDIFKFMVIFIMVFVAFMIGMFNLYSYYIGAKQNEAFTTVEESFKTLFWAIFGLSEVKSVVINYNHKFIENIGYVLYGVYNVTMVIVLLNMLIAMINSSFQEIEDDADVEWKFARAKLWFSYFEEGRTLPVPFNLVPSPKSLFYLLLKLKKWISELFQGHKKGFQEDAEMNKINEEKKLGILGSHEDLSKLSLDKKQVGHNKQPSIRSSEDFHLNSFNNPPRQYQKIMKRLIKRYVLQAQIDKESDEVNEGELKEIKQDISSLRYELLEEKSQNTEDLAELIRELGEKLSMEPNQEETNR
Description: This screening assay measures TRPC6 (transient receptor potential cation channel, subfamily C, member 6) ion channel activation via addition either of the commercially available DAG ligand analogue OAG (1-oleoyl-2-acetyl-sn-glycerol) or of the TRPC6 agonist 1-[1-(4,5,6,7,8-pentahydrocyclohepta[2,1-d]thiophen-2-ylcarbonyl)-4-piperidyl]-3-hydrobenzimidazol-2-one (GSK1702934A). The assay utilizes a FLIPR membrane potential (FMP) dye from Molecular Devices, which is a voltage sensitive indicator with a fluorescent quencher. Changes in membrane potential as measured by the fluorescent signal increase during membrane depolarization provide a measurement of channel activity.
The commercially available HEK293 cell line (ATCC) was stably transfected with an human TRPC6 gene construct in pcDNA3.1(+) (Thermo Fisher) and screened to find a clone with TRPC6 expression. These cells were maintained in growth medium recommended by the manufacturer supplemented with 400 μg/ml G418 to promote retention of the TRPC6 construct. After growing to near confluency, cells were plated at a density of 15,000 cells/well in clear bottom black walled poly-D-Lys coated 384-well tissue culture treated plates (TwinHelix, cat. #GR 4332 CPL) in growth medium lacking G418, and allowed to grow for 24 hrs. Growth media was removed from the wells and cells were then loaded with 20 μL of 0.5× Membrane Potential sensitive dye (Molecular Devices) in the presence of 30 μM BAPTA-AM (Invitrogen) in Tyrode's assay buffer (130 mM NaCl, 5 mM KCl, 0.15 mM CaCl2), 1 mM MgCl2, 5 mM NaHCO3, 20 mM HEPES, pH 7.4) and incubated for 60 min at room temperature in the dark. Ten μL/well of test compound or controls was added to the wells with the FLIPR^TETRA (Molecular Devices) and incubated for 5 minutes. Compounds were tested at eight concentrations (10, 3.16, 1, 0.316, 0.1, 0.0316, 0.01 and 0.00316 μM diluted in Tyrode's assay buffer and 0.5% DMSO, final concentration) with inter-plate duplicate data points. Subsequently, 15 μL/well of GSK1702934A agonist in Tyrode's assay buffer was added to a final concentration of 3 μM by the FLIPR^TETRA and the signal of the emitted fluorescence (Excitation: 510-545 nm, Emission: 565-625 nm) was recorded for 3 minutes. Negative and positive controls were included on each plate. Negative controls wells consisted of cells exposed to Tyrode's assay buffer and agonist solution, but no test compound. Positive control consisted of cells exposed to […] Verapamil hydrochloride (Tocris, cat. #0654) diluted in Tyrode's assay buffer and 0.5% DMSO final concentration and agonist solution. Inhibition was expressed as a percentage of control, with 0% activity being a result in which the response value of the test wells reached a level identical to the wells containing Verapamil plus GSK1702934A and 100% activity being a result in which the response value of the test wells reached a level identical to the wells containing GSK1702934A alone. Genedata Screener® 14.0.6 was used for data analysis to fit IC50 curves.

| SMILES | pIC50 |
| --- | --- |
| CCCOc1ccc(C(=O)N2CCC(c3cnc(N)cc3OC)CC2)c(F)c1 [Compound 39, 5-[1-(2-Fluoro-4-propoxybenzoyl)piperidin-4-yl]-4-methoxypyridin-2-amine] | 6.18 |
| COc1cc(N)ncc1C1CCN(C(=O)c2ccc(Oc3ccc(F)cc3)cc2F)CC1 [Compound 31, 5-{1-[2-Fluoro-4-(4-fluorophenoxy)benzoyl]piperidin-4-yl}-4-methoxypyridin-2-amine] | 6.69 |
| COc1cc(N)ncc1C1CCN(C(=O)c2ccc(OCc3nccs3)cc2F)CC1 [Compound 54, 5-(1-{2-Fluoro-4-[(1,3-thiazol-2-yl)methoxy]benzoyl}piperidin-4-yl)-4-methoxypyridin-2-amine] | 5.92 |
| COc1cc(C(=O)N2CCC(c3cnc(N)cc3OC)CC2)c(F)cc1OCC(C)C [Compound 33, 5-{1-[2-Fluoro-5-methoxy-4-(2-methylpropoxy)benzoyl]piperidin-4-yl}-4-methoxypyridin-2-amine] | 6.60 |
| Nc1ccc([C@@H]2CCN(C(=O)c3cc(F)c(Oc4ccc(F)cc4)cc3F)[C@H](CO)C2)nn1 [Compound 52b, [(2S,4R)-4-(6-Aminopyridazin-3-yl)-1-[2,5-difluoro-4-(4-fluorophenoxy)benzoyl]piperidin-2-yl]methanol] | 7.10 |
| Nc1ccc(C2CCN(C(=O)c3ccc(Oc4ccccc4)c(C(F)(F)F)c3)CC2)nn1 [Compound 49, 6-{1-[4-Phenoxy-3-(trifluoromethyl)benzoyl]piperidin-4-yl}pyridazin-3-amine] | 5.93 |
| COc1cc(N)ncc1C1CCN(C(=O)c2ccc(OCc3ccon3)cc2F)CC1 [Compound 53, 5-(1-{2-Fluoro-4-[(1,2-oxazol-3-yl)methoxy]benzoyl}piperidin-4-yl)-4-methoxypyridin-2-amine] | 6.19 |
| COc1cc(N)ncc1C1CCN(C(=O)c2cc(F)c(Oc3ccc(F)cc3)cc2F)CC1 [Compound 30, 5-{1-[2,5-Difluoro-4-(4-fluorophenoxy)benzoyl]piperidin-4-yl}-4-methoxypyridin-2-amine] | 6.78 |
| COc1cc(N)ncc1C1CCN(C(=O)c2ccc(OC[C@@H]3C[C@H]3C)cc2F)CC1 (relative stereo) [Compound 38, 5-[1-(2-Fluoro-4-{[trans-2-methylcyclopropyl]methoxy}benzoyl)piperidin-4-yl]-4-methoxypyridin-2-amine] | 6.10 |
| COc1cc(N)ncc1C1CCN(C(=O)c2ccc(OCC3CCCCC3)cc2F)CC1 [Compound 41, 5-{1-[4-(Cyclohexylmethoxy)-2-fluorobenzoyl]piperidin-4-yl}-4-methoxypyridin-2-amine] | 5.66 |
| COc1cc(N)ncc1C1CCN(C(=O)c2ccc(OCCC3CC3)cc2F)CC1 [Compound 42, 5-{1-[4-(2-Cyclopropylethoxy)-2-fluorobenzoyl]piperidin-4-yl}-4-methoxypyridin-2-amine] | 6.10 |
| Cc1cc(C2CCN(C(=O)c3ccc(Oc4ccc(F)cc4)cc3)CC2)nnc1N [Compound 50, 6-{1-[4-(4-Fluorophenoxy)benzoyl]piperidin-4-yl}-4-methylpyridazin-3-amine] | 6.54 |
| COc1cc(N)ncc1C1CCN(C(=O)c2ccc(Oc3ccc(F)cc3)cc2)CC1 [Compound 32, 5-{1-[4-(4-Fluorophenoxy)benzoyl]piperidin-4-yl}-4-methoxypyridin-2-amine] | 7.01 |
| COc1cc(C(=O)N2CCC(c3cnc(N)cc3OC)CC2)c(F)cc1OCC1CC(F)(F)C1 [Compound 37, 5-(1-{4-[(3,3-Difluorocyclobutyl)methoxy]-2-fluoro-5-methoxybenzoyl}piperidin-4-yl)-4-methoxypyridin-2-amine] | 6.32 |
| COc1cc(N)ncc1C1CCN(C(=O)c2ccc(OCc3ccccc3)cc2F)CC1 [Compound 43, 5-{1-[4-(Benzyloxy)-2-fluorobenzoyl]piperidin-4-yl}-4-methoxypyridin-2-amine] | 5.74 |
| COc1cc(C(=O)N2CCC(c3cnc(N)cc3OC)CC2)c(F)cc1OCC1CC(C)C1 (stereo not shown) [Compound 34, 5-(1-{2-Fluoro-5-methoxy-4-[(3-methylcyclobutyl)methoxy]benzoyl}piperidin-4-yl)-4-methoxypyridin-2-amine] | 6.37 |

Further molecules by rising pIC50, results first:

| pIC50 | SMILES |
| --- | --- |
| 6.32 | COc1cc(N)ncc1C1CCN(C(=O)c2ccc(OCc3csnn3)cc2F)CC1 [Compound 40, 5-(1-{2-Fluoro-4-[(1,2,3-thiadiazol-4-yl)methoxy]benzoyl}piperidin-4-yl)-4-methoxypyridin-2-amine] |
| 6.74 | COc1cc(C(=O)N2CCC(c3nnc(N)cc3C)CC2)c(F)cc1Oc1ccc(F)cc1 [Compound 51, 6-{1-[2-Fluoro-4-(4-fluorophenoxy)-5-methoxybenzoyl]piperidin-4-yl}-5-methylpyridazin-3-amine] |
| 6.80 | COc1cc(C(=O)N2CCC(c3cnc(N)cc3OC)CC2)c(F)cc1Oc1ccc(F)cc1 [Compound 29, 5-{1-[2-Fluoro-4-(4-fluorophenoxy)-5-methoxybenzoyl]piperidin-4-yl}-4-methoxypyridin-2-amine] |
| 6.81 | COc1cc(C(=O)N2CCC(c3cnc(N)cc3OC)CC2)c(F)cc1OCC1CC1 [Compound 35, 5-{1-[4-(Cyclopropylmethoxy)-2-fluoro-5-methoxybenzoyl]piperidin-4-yl}-4-methoxypyridin-2-amine] |
| 6.87 | COc1cc(N)ncc1N1CCN(C(=O)c2cc(F)c(Oc3ccc(F)cc3)cc2F)C2(CC2)C1 [Compound 28, 5-{4-[2,5-Difluoro-4-(4-fluorophenoxy)benzoyl]-4,7-diazaspiro[2.5]octan-7-yl}-4-methoxypyridin-2-amine] |
| 7.01 | COc1cc(N)ncc1N1CCN(C(=O)c2ccc(Oc3ccc(F)cc3)cc2F)C2(CC2)C1 [Compound 27, 5-{4-[2-Fluoro-4-(4-fluorophenoxy)benzoyl]-4,7-diazaspiro[2.5]octan-7-yl}-4-methoxypyridin-2-amine] |
| 7.21 | Nc1ccc(C2CCN(C(=O)c3cc(F)c(Oc4ccc(F)cc4)cc3F)CC2)nn1 [Compound 45, 6-{1-[2,5-Difluoro-4-(4-fluorophenoxy)benzoyl]piperidin-4-yl}pyridazin-3-amine] |
| 7.24 | Nc1ccc(C2CCN(C(=O)c3ccc(Oc4ccc(F)cc4)cc3F)CC2)nn1 [Compound 46, 6-{1-[2-Fluoro-4-(4-fluorophenoxy)benzoyl]piperidin-4-yl}pyridazin-3-amine] |
| 7.47 | COc1cc(C(=O)N2CCC(c3ccc(N)nn3)CC2)c(F)cc1Oc1ccc(F)cc1 [Compound 47, 6-{1-[2-Fluoro-4-(4-fluorophenoxy)-5-methoxybenzoyl]piperidin-4-yl}pyridazin-3-amine] |
